These results are taken from patent publication US9422296B2, “Fast-dissociating dopamine 2 receptor antagonists” (Janssen Pharmaceutica NV, priority 2007, dated 2016).

Data set [1] has as its target T1, human Dopamine D3 receptor (Homo sapiens, UniProt P35462).
T1 construct: expressed in transfected cells; host or cells: CHO cells (membranes)
Briefly: In vitro binding affinity for human D3 receptor ([125I]iodosulpride). Particulars: for IC50: [125I]iodosulpride, membranes of human D3 receptor-transfected CHO cells, read-out: D3 binding pIC50 (converted). The procedure:
In Vitro Binding Affinity for Human D3 Receptor
Frozen membranes of human Dopamine D3 receptor-transfected CHO cells were thawed, briefly homogenized using an Ultra-Turrax T25 homogeniser and diluted in 50 mM Tris-HCl assay buffer containing 120 mM NaCl, 2 mM CaCl2, 1 mM MgCl2, 5 mM KCl and 0.1% BSA (adjusted to pH 7.4 with HCl) to an appropriate protein concentration optimized for specific and non-specific binding. Radioligand [^125I]Iodosulpride (Amersham, specific activity ˜2000 Ci/mmol) was diluted in assay buffer at a concentration of 2 nM. Prepared radioligand (20 μl), along with 40 μl of either the 10% DMSO control, Risperidone (10^−6M final concentration), or compound of interest, was then incubated with 70 μl of the prepared membrane solution and 70 μl of WGA coated PVT beads (0.25 mg/well final concentration). After shaking for 24 hours at RT plates were counted in a Topcount™ scintillation counter. Percentage specific binding and competition binding curves were calculated using S-Plus software (Insightful).

Data set [2] addresses T2, human Serotonin 5HT6 receptor (Homo sapiens, UniProt P50406).
T2 construct: expressed in transfected cells; host or cells: HEK cells (membranes)
Briefly: In vitro binding affinity for human 5HT6 receptor ([3H]lysergic acid diethylamide). Particulars: [3H]LSD, membranes of human 5HT6 receptor-transfected HEK cells; for IC50: read-out: 5-HT6 binding pIC50 (converted). Here is the method:
In Vitro Binding Affinity for Human 5HT6 Receptor
Frozen membranes of human Serotonin 5HT6 receptor-transfected HEK cells were thawed, briefly homogenized using an Ultra-Turrax T25 homogeniser and diluted in 50 mM Tris-HCl assay buffer containing 10 mM MgCl2, 1 mM EDTA and 10 μM Pargyline (adjusted to pH 7.4 with HCl) to an appropriate protein concentration optimized for specific and non-specific binding. Radioligand [^3H]Lysergic acid diethylamide (Perkin Elmer, specific activity ˜80 Ci/mmol) was diluted in assay buffer at a concentration of 20 nM. Radioligand (20 μl), along with 40 μl of either the 10% DMSO control, Methiothepine (10^−5 M final concentration), or compound of interest, was then incubated with 70 μl of the prepared membrane solution and 70 μl of WGA coated PVT beads (0.25 mg/well final concentration). After shaking for 24 hours at RT plates were counted in a Topcount™ scintillation counter. Percentage specific binding and competition binding curves were calculated using S-Plus software (Insightful).

Another data set addresses T3, human D2L receptor (Homo sapiens, UniProt P14416).
T3 construct: expressed in transfected cells
Briefly: Fast dissociation: indirect assay of rate of dissociation from D2 receptor ([3H]spiperone binding after pre-incubation with compound). To be noted: [3H]spiperone binding as % of total binding capacity after 5 min on filter; compound pre-incubated at 4 times its IC50; >50% = faster than clozapine. The procedure: Compounds were first screened for their D2 affinity in a binding assay using [^3H]spiperone and human D2L receptor cell membranes.
Compounds at a concentration of 4 times their IC50 were first incubated for one hour with human D2L receptor cell membranes in a volume of 2 ml at 25° C., then filtered over glass-fibre filter under suction using a 40 well multividor Immediately after, the vacuum was released. 0.4 ml of pre-warmed buffer (25° C.) containing 1 nM [^3H]spiperone was added on the filter for 5 minutes. The incubation was stopped by initiating the vacuum and immediate rinsing with 2×5 ml of ice-cold buffer. The filter-bound radioactivity was measured in a liquid scintillation spectrometer. The principle of the assay is based on the assumption that the faster a compound dissociates from the D2 receptor, the faster [^3H]spiperone binds to the D2 receptor.

Data set [3] concerns the target T4, human Dopamine D2L receptor (Homo sapiens, UniProt P14416).
T4 construct: expressed in transfected cells; host or cells: CHO cells (membranes)
Briefly: In vitro binding affinity for human D2L receptor ([3H]spiperone). To be noted: membranes of human D2L receptor-transfected CHO cells, read-out: D2L binding pIC50 (converted). The source says: In order to find antipsychotic compounds active against positive and negative symptoms and cognitive impairment, and having an improved safety profile (low EPS incidence and no metabolic disorders), we have screened for compounds selectively interacting with the dopamine D2 receptor and dissociating fast from this receptor, and further having affinity for the dopamine D3 receptor as well as the serotonin 5-HT-6 receptor. Compounds were first screened for their D2 affinity in a binding assay using [^3H]spiperone and human D2L receptor cell membranes.
Pharmacology In Vitro Binding Affinity for Human D2L Receptor
Frozen membranes of human Dopamine D2L receptor-transfected CHO cells were thawed, briefly homogenised using an Ultra-Turrax T25 homogeniser and diluted in Tris-HCl assay buffer containing NaCl, CaCl2, MgCl2, KCl (50, 120, 2, 1, and 5 mM respectively, adjusted to pH 7.7 with HCl) to an appropriate protein concentration optimised for specific and non-specific binding. Radioligand [^3H]Spiperone (NEN, specific activity ˜70 Ci/mmol) was diluted in assay buffer at a concentration of 2 nmol/L. Prepared radioligand (50 μl), along with 50 μl of either the 10% DMSO control, Butaclamol (10^−6 mol/1 final concentration), or compound of interest, was then incubated (30 min, 37° C.) with 400 μl of the prepared membrane solution. Membrane-bound activity was filtered through a Packard Filtermate harvester onto GF/B Unifilterplates and washed with ice-cold Tris-HCl buffer (50 mM; pH 7.7; 6×0.5 ml). Filters were allowed to dry before adding scintillation fluid and counting in a Topcount scintillation counter. Percentage specific bound and competition binding curves were calculated using S-Plus software (Insightful).

In data set [4] the test system is subchronic PCP-induced attentional set shifting. Briefly: Reversal of subchronic PCP-induced attentional set shifting in rats. Format: in vivo. The source says: Compound E1 was further found to be active in the ‘Reversal of subchronic PCP-induced attentional set shifting in rats’ test (J. S. Rodefer et al., Neurospychopharmacology (2007), 1-10).

The melting point is the temperature of the solid-liquid transition. A word on the pIC50: it is −log10 of the IC50, conventionally taken in molar units. A high value points to a small IC50.

pIC50: −log10 of the molar value. Read-outs that look alike come from different tables or passages of the source.

T2 sequence (P50406 whole entry): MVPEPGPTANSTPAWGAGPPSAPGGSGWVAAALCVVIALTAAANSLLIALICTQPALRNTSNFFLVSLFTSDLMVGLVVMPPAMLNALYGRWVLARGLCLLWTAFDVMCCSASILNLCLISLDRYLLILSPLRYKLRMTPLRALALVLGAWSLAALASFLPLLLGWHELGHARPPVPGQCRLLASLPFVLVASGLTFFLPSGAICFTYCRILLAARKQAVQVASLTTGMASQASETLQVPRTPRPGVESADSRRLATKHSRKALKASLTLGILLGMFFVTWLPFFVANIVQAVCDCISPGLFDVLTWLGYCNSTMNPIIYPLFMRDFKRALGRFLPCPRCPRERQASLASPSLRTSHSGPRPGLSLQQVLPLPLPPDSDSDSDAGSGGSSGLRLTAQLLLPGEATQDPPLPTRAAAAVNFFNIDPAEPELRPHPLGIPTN
T3 sequence (P14416 whole entry): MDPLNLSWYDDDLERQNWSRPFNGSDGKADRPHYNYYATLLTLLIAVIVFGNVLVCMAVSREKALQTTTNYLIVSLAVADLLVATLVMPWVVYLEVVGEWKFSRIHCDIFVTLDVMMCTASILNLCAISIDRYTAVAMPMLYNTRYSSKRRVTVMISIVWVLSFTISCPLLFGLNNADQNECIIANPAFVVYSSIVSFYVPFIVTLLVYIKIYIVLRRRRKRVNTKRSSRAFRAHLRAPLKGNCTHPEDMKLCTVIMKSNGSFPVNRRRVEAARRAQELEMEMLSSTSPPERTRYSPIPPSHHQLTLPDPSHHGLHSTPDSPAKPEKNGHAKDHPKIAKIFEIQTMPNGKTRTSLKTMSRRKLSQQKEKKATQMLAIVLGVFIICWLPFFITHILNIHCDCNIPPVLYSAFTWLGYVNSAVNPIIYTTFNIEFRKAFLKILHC
T4 sequence (P14416 whole entry): as above
T1 sequence (P35462 whole entry): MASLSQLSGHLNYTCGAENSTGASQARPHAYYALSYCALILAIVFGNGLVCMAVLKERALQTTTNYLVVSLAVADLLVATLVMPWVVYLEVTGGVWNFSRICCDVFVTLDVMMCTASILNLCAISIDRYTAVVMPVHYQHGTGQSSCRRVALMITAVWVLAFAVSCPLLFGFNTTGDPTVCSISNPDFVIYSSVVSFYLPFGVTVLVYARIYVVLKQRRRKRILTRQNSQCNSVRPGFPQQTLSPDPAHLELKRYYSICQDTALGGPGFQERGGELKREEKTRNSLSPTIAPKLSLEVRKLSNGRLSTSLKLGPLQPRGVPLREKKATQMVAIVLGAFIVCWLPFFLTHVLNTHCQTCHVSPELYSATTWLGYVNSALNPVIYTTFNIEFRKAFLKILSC

`FC(F)(F)c1nnc(N2CCN3CCCC3C2)cc1-c1ccccc1` (racemic) [Example E5, 2-(5-Phenyl-6-trifluoromethyl-pyridazin-3-yl)-octahydro-pyrrolo[1,2-a]pyrazine]: the IC50 in data set [1] is over 10000 nM; in data set [2], 1020 nM; in data set [3] it was 1260 nM. Besides, the D2 dissociation at human D2L receptor is 84%.

In turn, `FC(F)(F)c1nnc(N2CCNCC2)cc1-c1ccccc1` [Example E1, 4-Phenyl-6-piperazin-1-yl-3-trifluoromethyl-pyridazine] returned a melting point of 130.7 °C. Further, in data set [1], the IC50 is 66.1 nM. Also, the IC50 in data set [2] was 589 nM. Moreover, the D2 dissociation at human D2L receptor stood at 75%. For the same molecule, the IC50 in data set [3] was 1100 nM. Also, in data set [4], the “activity in reversal of subchronic PCP-induced attentional set shifting” value was “active”.

As to `CCN1CCN(c2cc(-c3ccccc3)c(C(F)(F)F)nn2)CC1` [Example E2, 6-(4-Ethylpiperazin-1-yl)-4-phenyl-3-trifluoromethyl-pyridazine], the IC50 was 25.1 nM in data set [1], 3160 nM in data set [2] and 204 nM in data set [3]. For the same molecule, the D2 dissociation at human D2L receptor is reported as 80.5%.

Molecule `Fc1ccc(-c2cc(N3CCNCC3)nnc2C(F)(F)F)cc1` [Example E6, 4-(4-Fluorophenyl)-6-piperazin-1-yl-3-trifluoromethyl-pyridazine] displayed a melting point of 137.4 °C. The molecule also gave a pIC50 in data set [1] of 7.44. The IC50 in data set [2] is 214 nM. Moreover, the D2 dissociation on human D2L receptor was 55%. Also, the IC50 in data set [3] was 372 nM.

`FC(F)(F)c1nnc(N2CCNCC2)cc1-c1ccsc1` [Example E7, 6-Piperazin-1-yl-4-thiophen-3-yl-3-trifluoromethyl-pyridazine]: the melting point turned out to be 244.3 °C. Moreover, in data set [1], the IC50 is over 10000 nM. In data set [2], the IC50 is 1550 nM. On human D2L receptor, the D2 dissociation worked out at 81%. Besides, in data set [3], the IC50 is 871 nM.

Take `Cc1ccccc1-c1cc(N2CCNCC2)nnc1C(F)(F)F` [Example E8, 6-Piperazin-1-yl-4-o-tolyl-3-trifluoromethyl-pyridazine]: the IC50 in data set [1] is over 10000 nM; in data set [2], 263 nM; in data set [3], 1000 nM. In addition, at human D2L receptor, the D2 dissociation is given as 78.5%.

With `Fc1ccc(-c2ccc(-c3cc(N4CCNCC4)nnc3C(F)(F)F)cc2)cc1` [Example E9, 4-(4′-Fluorobiphenyl-4-yl)-6-piperazin-1-yl-3-trifluoromethyl-pyridazine], the melting point worked out at 161.9 °C. Moreover, the IC50 in data set [1] is 47.9 nM. For the same molecule, in data set [2], the IC50 is 1820 nM. Moreover, at human D2L receptor, the D2 dissociation turned out to be 48%. Further, in data set [3], the IC50 is 794 nM.

In the case of `N#Cc1nnc(N2CCNCC2)cc1-c1ccccc1` [Example E10, 4-Phenyl-6-piperazin-1-yl-pyridazine-3-carbonitrile], the melting point is 271.6 °C. Also, in data set [1], the IC50 was over 10000 nM. For the same molecule, the IC50 in data set [2] was 4570 nM. The D2 dissociation on human D2L receptor turned out to be 86%. The IC50 in data set [3] was 5620 nM.

The molecule `Clc1nnc(N2CCNCC2)cc1-c1ccccc1` [Example E20] displayed a melting point of 173.9 °C. The IC50 in data set [1] is 151 nM. In data set [2], the IC50 was 4370 nM. In data set [3], the IC50 was 1410 nM.

`Fc1ccc(CN2CCN(c3cc(-c4ccccc4)c(C(F)(F)F)nn3)CC2)cc1F` [Example E21]: the melting point was determined as 185.1 °C. Further, the IC50 in data set [1] was 1480 nM. The “5-HT6 binding pIC50” value in data set [2] is on record as over 5. Also, the IC50 in data set [3] was 2000 nM.

Turning to `FC(F)(F)c1nnc(N2CCN(C3CC3)CC2)cc1-c1ccccc1` [Example E23], the melting point came to 152 °C. In data set [1], the IC50 was 275 nM. Moreover, in data set [2], the IC50 is over 10000 nM. In addition, in data set [3], the IC50 was 1860 nM.

In the case of `CCCN1CCN(c2cc(-c3ccccc3)c(C(F)(F)F)nn2)CC1` [Example E24], the melting point turned out to be 129.8 °C. Also, the IC50 in data set [1] was over 10000 nM. Further, in data set [2], the IC50 is 5370 nM. Further, the IC50 in data set [3] is 67.6 nM.

`CCCCN1CCN(c2cc(-c3ccccc3)c(C(F)(F)F)nn2)CC1` [Example E25]: the melting point was 102.9 °C. In addition, the IC50 in data set [1] was 2.63 nM. For the same molecule, in data set [2], the IC50 was 2690 nM. The IC50 in data set [3] is 69.2 nM.

Take `Cc1cscc1-c1cc(N2CCNCC2)nnc1C(F)(F)F` [Example E29]: the melting point is 101 °C. The IC50 in data set [1] is over 10000 nM. Further, in data set [2], the IC50 was 537 nM. Besides, the IC50 in data set [3] is 3550 nM.

Molecule `Cc1csc(-c2cc(N3CCNCC3)nnc2C(F)(F)F)c1` [Example E30] registered a melting point of 98.1 °C. For the same molecule, in data set [1], the IC50 is 53.7 nM. In addition, the IC50 in data set [2] is 562 nM. The IC50 in data set [3] is 759 nM.

`FC(F)(F)c1nnc(N2CCNCC2)cc1-c1ccc(-c2ccccc2)cc1` [Example E35] came in with a melting point of 199.1 °C. Moreover, in data set [1], the IC50 is 107 nM. Further, the IC50 in data set [2] was 1510 nM. The IC50 in data set [3] is 2690 nM.
